Activity calls are given as the source filed them.
What was measured:
[1] = Luminescence-based cell-based high throughput dose response assay to identify activators of the DAF-12 from the parasite S. stercoralis (ssDAF-12).; format: functional
[2] = molecular target: T1, Oxysterols receptor LXR-beta (Homo sapiens, UniProt P55055); experiment: LXR agonists, Gal4 luciferase reporter, dose response, counter-screen for ssDAF-12 agonist project, cell-based, luminescence, HEK293, S. stercoralis campaign (AID 720737); format: functional; details: read-out: IC50 (the source's name)
T1 sequence (P55055 whole entry): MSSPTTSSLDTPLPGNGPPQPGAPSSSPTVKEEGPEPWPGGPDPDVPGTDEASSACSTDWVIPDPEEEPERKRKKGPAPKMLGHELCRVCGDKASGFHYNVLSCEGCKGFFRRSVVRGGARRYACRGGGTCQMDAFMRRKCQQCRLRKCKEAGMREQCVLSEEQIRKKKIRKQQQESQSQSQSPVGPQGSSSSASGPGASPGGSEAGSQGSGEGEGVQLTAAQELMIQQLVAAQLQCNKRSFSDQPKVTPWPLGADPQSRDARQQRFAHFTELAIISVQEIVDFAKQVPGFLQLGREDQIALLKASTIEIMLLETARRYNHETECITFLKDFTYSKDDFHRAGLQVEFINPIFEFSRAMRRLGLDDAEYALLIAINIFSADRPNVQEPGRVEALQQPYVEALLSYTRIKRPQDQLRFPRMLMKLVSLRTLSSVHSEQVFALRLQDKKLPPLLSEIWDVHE

[3] = molecular target: T1, Oxysterols receptor LXR-beta; format: functional, cell-based
[4] = molecular target: NAD-dependent protein deacylase sirtuin-5, mitochondrial (Homo sapiens, UniProt Q9NXA8); experiment: SIRT5 desuccinylase inhibitors, dose response, biochemical, fluorescence imaging, cherry-pick, set 5 (AID 720591);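 also: desuccinylation of succinyl peptide AMC substrate read as fluorescence after trypsin release; potency of inhibitors that lower fluorescence and may act on trypsin instead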
Sequence of NAD-dependent protein deacylase sirtuin-5, mitochondrial (Q9NXA8 whole entry): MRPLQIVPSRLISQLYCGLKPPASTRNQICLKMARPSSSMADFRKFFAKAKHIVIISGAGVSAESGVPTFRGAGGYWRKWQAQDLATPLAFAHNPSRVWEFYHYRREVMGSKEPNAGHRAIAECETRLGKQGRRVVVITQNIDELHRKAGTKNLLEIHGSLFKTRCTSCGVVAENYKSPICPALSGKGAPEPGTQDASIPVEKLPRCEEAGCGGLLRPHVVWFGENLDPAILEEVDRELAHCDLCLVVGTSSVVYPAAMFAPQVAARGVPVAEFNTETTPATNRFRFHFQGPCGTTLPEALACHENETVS

[5] = P. falciparum Dd2 growth inhibitors, dose response, SYBR Green, dry powder samples, set 9 (AID 1159568); format: functional, cell-based
[6] = P. falciparum 3D7-ScDHODH growth inhibitors, dose response, SYBR Green, dry powder samples (AID 1159570); format: functional, cell-based;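 also: parasite growth measured after 72 hours of compound exposure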
[7] = P. falciparum Dd2 growth inhibitors, dose response, SYBR Green, cherry-picked samples (AID 1159567); format: functional, cell-based
[8] = P. falciparum Dd2 growth inhibitors, dose response, SYBR Green, dry powder samples (AID 1159566); format: functional, cell-based;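 also: potency for growth inhibition with lower SYBR green DNA signal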
[9] = P. falciparum ATP4 D1247Y mutant growth inhibitors, dose response, NITD609-resistant line, SYBR Green, dry powder (AID 1159571); format: functional, cell-based;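 also: parasites synchronized at ring stage by sorbitol before testing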

For `C(=Cc1c[nH]c2ccccc12)c1nccc2ccccc12`, the IC50 [1] was > 67.6 µM (inactive), the EC50 [2] was > 67.6 µM (inactive) and the EC50 [3] was > 67.4 µM (inactive). The EC50 (cells) was > 67.4 µM (inactive).

In the case of `CCOc1ccc(CCNC(=O)c2cccc(S(=O)(=O)N3CCN(C(C)=O)CC3)c2)cc1OCC`, the AC50 [4] is reported as > 30 µM (inactive).

In the case of `Cc1ccc(S(=O)(=O)N2C[C@@H]3CCCC[C@@H]3[C@@H](C)[C@H]2c2cn(Cc3ccccc3)c3ccc(F)cc23)cc1`, the AC50 [4] is reported as > 30 µM (inactive).

With `N#C[C@@H]1[C@H](c2ccccc2)[C@H](CO)N1C(=O)Nc1cccc(F)c1` the AC50 [5] was 0.968 µM (active).

With `C[C@@H]1CN([C@H](C)CO)C(=O)c2cc(NC(=O)Nc3ccc4c(c3)OCO4)ccc2O[C@@H](C)CCCCO[C@H]1CN(C)S(=O)(=O)c1ccccc1` the AC50 [5] was 2.22 µM (active).

For `COc1cccc(C#Cc2ccc([C@H]3[C@@H](CO)N(C(=O)C4CCC4)[C@H]3C#N)cc2)c1`, the AC50 [6] was 1.17 µM (active), the AC50 [7] was 1.2 µM (active) and the AC50 [8] was 0.636 µM (active). The AC50 [9] was 1.41 µM (active).

With `COc1ccc2c3c(n(C)c2c1)[C@@H](CO)N(C(=O)c1ccc(F)cc1)CC31CN(C(=O)Nc2ccc(F)cc2)C1` the AC50 [6] was 1.26 µM (active), the AC50 [7] was 1.79 µM (active) and the AC50 [8] was 1.22 µM (active). For the same molecule, the AC50 [9] was 0.999 µM (active).

Source: ChEMBL document CHEMBL1201862, “PubChem BioAssay data set” (2004)
